{"source": "ChEMBL document CHEMBL3881525", "about": "“Analogs of dehydrophenylahistins and their therapeutic use” (2007)", "key": {"Tubulin (Homo sapiens) [1]": {"biological_target": "T1, Tubulin (Homo sapiens) (UniProt P68371+Q9H4B7+P0DPH7+P68366+Q13509+Q71U36+P04350+Q3ZCM7+P07437+P68363+Q9BQE3+Q6PEY2+Q13885+Q9BVA1+Q9BUF5)", "assay": "Induction of microtubule depolymerization in human CCD-27Sk cells assessed as cell membrane blebbing at 2 uM measured after 30 mins", "type": "cell-based"}, "Tubulin (Homo sapiens) [2]": {"biological_target": "T1, Tubulin (Homo sapiens)", "assay": "Induction of microtubule instability in human MCF7 cells assessed as time spent for attenuation at IC50 for mitotic block measured after 20 hrs by immunofluorescence analysis", "type": "cell-based"}, "[3]": {"assay": "Cytotoxicity against human HT-29 cells assessed as reduction in cell viability measured after 48 hrs by resazurin dye-based fluorometric analysis", "type": "functional", "conditions": "Homo sapiens, HT-29, 48 h"}, "HUVEC [4]": {"tested_on": "HUVEC", "assay": "Induction of monolayer permeability in HUVEC measured up to 15 mins", "type": "functional, cell-based", "conditions": "Homo sapiens"}, "Mus musculus": {"tested_on": "Mus musculus", "assay": "Antivascular activity against mouse N202 tumor spheroids expressing H2B-GFP allografted in mouse assessed as inhibition of tumor-induced central vasculature at 10 mg/kg, iv administered on day 13 as infusion for 5 mins measured on day 15 by fluorescence video microscopy", "type": "functional, organism-based"}, "MCF7 [5]": {"tested_on": "MCF7", "assay": "Antimitotic activity in human MCF7 cells assessed as microtubule polymer at twice mitotic block IC50 measured after 20 hrs by immunofluorescence analysis relative to control", "type": "functional, cell-based"}, "Tubulin (Homo sapiens) [6]": {"biological_target": "T1, Tubulin (Homo sapiens)", "assay": "Induction of microtubule dynamic instability in human MCF7 cells at IC25 for mitotic block measured after 20 hrs by immunofluorescence analysis", "type": "cell-based"}, "Tubulin (Homo sapiens) [7]": {"biological_target": "T1, Tubulin (Homo sapiens)", "assay": "Induction of microtubule instability in human MCF7 cells assessed as time spent for growth at IC25 for mitotic block measured after 20 hrs by immunofluorescence analysis", "type": "cell-based"}, "[8]": {"assay": "Toxicity in mouse allografted with mouse N202 tumor spheroids expressing H2B-GFP at 10 mg/kg, iv administered on day 12 as infusion for 5 mins", "type": "organism-based", "conditions": "in vivo"}, "[9]": {"assay": "Drug metabolism assessed as human hepatic cytochrome P450-mediated hydroxylated metabolite P3 and P5 formation", "type": "ADME"}, "Tubulin (Homo sapiens) [10]": {"biological_target": "T1, Tubulin (Homo sapiens)", "assay": "Time required for induction of microtubule dynamic instability in human MCF7 cells at IC50 for mitotic block measured after 20 hrs by immunofluorescence analysis", "type": "cell-based"}, "[11]": {"assay": "Toxicity in mouse allografted with mouse N202 tumor spheroids expressing H2B-GFP at 10 mg/kg, iv administered on day 13 as infusion for 5 mins", "type": "organism-based", "conditions": "in vivo"}, "[12]": {"assay": "Toxicity in mouse allografted with mouse N202 tumor spheroids expressing H2B-GFP assessed as effect on tumor surrounding vasculature in the dorsal skin fold at 10 mg/kg, iv administered on day 12 as infusion for 5 mins measured on day 15", "type": "organism-based", "conditions": "in vivo"}, "[13]": {"assay": "Cytotoxicity against human HT-29 cells assessed as reduction in cell viability measured after 48 hrs by resazurin dye-based fluorometric analysis relative to control", "type": "functional"}, "[14]": {"biological_target": "Cyclin-dependent kinase 1/cyclin B1 (Homo sapiens) (UniProt P06493+P14635)", "sequence (P06493 whole entry, looked up)": "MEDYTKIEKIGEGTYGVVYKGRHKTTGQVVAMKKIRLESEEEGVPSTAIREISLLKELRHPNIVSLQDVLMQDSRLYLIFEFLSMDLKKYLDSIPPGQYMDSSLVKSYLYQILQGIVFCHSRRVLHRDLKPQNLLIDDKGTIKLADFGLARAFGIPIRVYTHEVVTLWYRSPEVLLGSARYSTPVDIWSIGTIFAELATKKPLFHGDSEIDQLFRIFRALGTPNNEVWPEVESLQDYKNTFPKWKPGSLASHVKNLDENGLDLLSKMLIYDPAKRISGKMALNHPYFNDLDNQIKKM", "sequence (P14635 whole entry, looked up)": "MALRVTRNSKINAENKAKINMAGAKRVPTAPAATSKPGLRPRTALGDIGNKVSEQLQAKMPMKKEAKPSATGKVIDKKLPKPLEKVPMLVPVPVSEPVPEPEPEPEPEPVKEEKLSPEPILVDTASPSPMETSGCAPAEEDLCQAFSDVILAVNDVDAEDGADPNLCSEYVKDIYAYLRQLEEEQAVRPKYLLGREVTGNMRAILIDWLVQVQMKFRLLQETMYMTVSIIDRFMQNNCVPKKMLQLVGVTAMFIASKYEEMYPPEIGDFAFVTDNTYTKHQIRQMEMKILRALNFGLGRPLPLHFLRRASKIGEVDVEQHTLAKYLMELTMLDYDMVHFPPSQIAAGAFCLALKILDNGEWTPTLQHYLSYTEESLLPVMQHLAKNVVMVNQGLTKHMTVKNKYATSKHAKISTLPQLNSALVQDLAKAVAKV", "conditions": "10 uM", "description": "Inhibition of human CDK1/human cyclinB at 10 uM in presence of ATP"}, "[15]": {"assay": "Antitumor activity against human MCF7 cells xenografted in nude mouse assessed as tumor growth inhibition at 7.5 mg/kg, ip qd administered every third day for 5 days in presence of CPT-11 relative to control", "type": "functional", "conditions": "120 h, read-out: TGI"}, "Rattus norvegicus [16]": {"tested_on": "Rattus norvegicus", "assay": "Effect on blood flow in rat heart at 15 mg/kg, ip measured after 1 hr by [125I]iodoantipyrine based method relative to vehicle control", "type": "ADME, organism-based", "conditions": "in vivo"}, "[17]": {"assay": "Cytotoxicity against human MDA-MB-231 cells assessed as reduction in cell viability measured after 48 hrs by resazurin dye-based fluorometric analysis", "type": "functional", "conditions": "MDA-MB-231, 48 h"}, "Tubulin (Homo sapiens) [18]": {"biological_target": "T1, Tubulin (Homo sapiens)", "assay": "Induction of microtubule instability in human MCF7 cells assessed as mean growth rate at IC50 for mitotic block measured after 20 hrs by immunofluorescence analysis", "type": "cell-based"}, "Tubulin (Homo sapiens) [19]": {"biological_target": "T1, Tubulin (Homo sapiens)", "assay": "Induction of microtubule dynamic instability in human MCF7 cells at IC50 for mitotic block measured after 20 hrs by immunofluorescence analysis", "type": "cell-based"}, "Rattus norvegicus [20]": {"tested_on": "Rattus norvegicus", "assay": "Effect on blood flow in rat skin at 15 mg/kg, ip measured after 1 hr by [125I]iodoantipyrine based method relative to vehicle control", "type": "ADME, organism-based", "conditions": "in vivo"}, "[21]": {"biological_target": "Tyrosine-protein kinase Lyn (Mus musculus) (UniProt P25911)", "sequence (P25911 whole entry)": "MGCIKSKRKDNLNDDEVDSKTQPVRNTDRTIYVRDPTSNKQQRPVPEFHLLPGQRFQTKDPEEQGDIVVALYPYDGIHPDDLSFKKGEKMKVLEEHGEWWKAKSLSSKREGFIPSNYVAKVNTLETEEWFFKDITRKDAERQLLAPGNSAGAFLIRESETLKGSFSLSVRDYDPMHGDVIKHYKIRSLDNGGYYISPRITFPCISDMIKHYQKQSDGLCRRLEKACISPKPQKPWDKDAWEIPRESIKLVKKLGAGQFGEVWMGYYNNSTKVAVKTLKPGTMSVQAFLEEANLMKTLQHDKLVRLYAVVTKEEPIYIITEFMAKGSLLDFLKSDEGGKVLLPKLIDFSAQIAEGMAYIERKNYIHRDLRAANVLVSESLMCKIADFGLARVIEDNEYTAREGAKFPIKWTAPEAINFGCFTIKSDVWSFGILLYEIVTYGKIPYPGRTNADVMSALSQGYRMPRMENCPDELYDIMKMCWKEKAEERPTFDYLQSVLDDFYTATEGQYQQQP", "conditions": "10 uM", "description": "Inhibition of mouse Lyn at 10 uM in presence of ATP"}, "[22]": {"assay": "Toxicity in mouse allografted with mouse N202 tumor spheroids expressing H2B-GFP assessed as effect on tumor surrounding vasculature in the dorsal skin fold at 10 mg/kg, iv administered on day 13 as infusion for 5 mins measured on day 15", "type": "organism-based", "conditions": "in vivo"}, "Rattus norvegicus [23]": {"tested_on": "Rattus norvegicus", "assay": "Effect on blood flow in rat muscle at 15 mg/kg, ip measured after 1 hr by [125I]iodoantipyrine based method relative to vehicle control", "type": "ADME, organism-based", "conditions": "in vivo"}, "Rattus norvegicus [24]": {"tested_on": "Rattus norvegicus", "assay": "Reduction in blood flow in rat gut at 15 mg/kg, ip measured after 24 hrs by [125I]iodoantipyrine based method relative to vehicle control", "type": "ADME, organism-based", "conditions": "in vivo"}, "[25]": {"assay": "Antifungal activity against Epidermophyton floccosum isolate 1 measured after 48 hrs by broth dilution method", "type": "functional"}, "[26]": {"assay": "Cytotoxicity against mouse B16F10 cells assessed as reduction in cell viability measured after 48 hrs by resazurin dye-based fluorometric analysis", "type": "functional", "conditions": "B16-F10, 48 h"}, "Tubulin (Homo sapiens) [27]": {"biological_target": "T1, Tubulin (Homo sapiens)", "assay": "Induction of microtubule depolymerization in HUVEC at 2 uM measured after 30 mins", "type": "cell-based"}, "Rattus norvegicus [28]": {"tested_on": "Rattus norvegicus", "assay": "Effect on blood flow in rat kidney at 15 mg/kg, ip measured after 1 hr by [125I]iodoantipyrine based method relative to vehicle control", "type": "ADME, organism-based", "conditions": "in vivo"}, "[29]": {"assay": "Cytotoxicity against human OVCAR3 cells assessed as reduction in cell viability measured after 48 hrs by resazurin dye-based fluorometric analysis", "type": "functional", "conditions": "OVCAR-3, 48 h"}, "[30]": {"assay": "Antifungal activity against Trichophyton mentagrophytes isolate 2 measured after 48 hrs by broth dilution method", "type": "functional"}, "Rattus norvegicus [31]": {"tested_on": "Rattus norvegicus", "assay": "Reduction in blood flow in rat spleen at 15 mg/kg, ip measured after 24 hrs by [125I]iodoantipyrine based method relative to vehicle control", "type": "ADME, organism-based", "conditions": "in vivo"}, "Tubulin (Homo sapiens) [32]": {"biological_target": "T1, Tubulin (Homo sapiens)", "assay": "Induction of microtubule instability in human MCF7 cells assessed as time spent for shortening at IC25 for mitotic block measured after 20 hrs by immunofluorescence analysis", "type": "cell-based"}, "Tubulin (Bos taurus)": {"biological_target": "Tubulin (Bos taurus) (UniProt Q6B856+Q862L2+Q862F3)", "conditions": "1.25 to 5 uM"}, "MCF7 [33]": {"tested_on": "MCF7", "assay": "Antimitotic activity in human MCF7 cells assessed as mitotic index measured after 20 hrs by DAPI-staining based fluorescence microscopic analysis", "type": "functional, cell-based"}, "HUVEC [34]": {"tested_on": "HUVEC", "assay": "Induction of apoptosis in HUVEC assessed as disruption of nuclei", "type": "functional, cell-based", "conditions": "Homo sapiens"}, "[35]": {"assay": "Antifungal activity against Trichophyton rubrum isolate 2 measured after 48 hrs by broth dilution method", "type": "functional"}, "Tubulin (Homo sapiens) [36]": {"biological_target": "T1, Tubulin (Homo sapiens)", "assay": "Induction of microtubule instability in human MCF7 cells assessed as mean growth rate at IC25 for mitotic block measured after 20 hrs by immunofluorescence analysis", "type": "cell-based"}, "Tubulin (Homo sapiens) [37]": {"biological_target": "T1, Tubulin (Homo sapiens)", "assay": "Induction of microtubule instability in human MCF7 cells assessed as mean shortening rate at IC50 for mitotic block measured after 20 hrs by immunofluorescence analysis", "type": "cell-based"}, "MCF7 [38]": {"tested_on": "MCF7", "assay": "Antimitotic activity in human MCF7 cells assessed as bipolar cells with uncompressed chromosomes at mitotic block IC50 measured after 20 hrs by immunofluorescence analysis relative to control", "type": "functional"}}, "note": "Activity calls are given as the source filed them. The calls are words filed in the database; no cut-off is given here.", "data": [{"smiles": "CC(C)(C)c1[nH]cnc1/C=c1\\[nH]c(=O)/c(=C/c2ccccc2)[nH]c1=O", "note": "[PLINABULIN]", "values": [{"measurement": "Activity", "setting": "Tubulin (Homo sapiens) [1]", "value": "Active"}, {"measurement": "TIME", "setting": "Tubulin (Homo sapiens) [2]", "value": 0.0102, "unit": "h"}, {"measurement": "EC50", "setting": "[3]", "value": "0.0098 to 0.048", "unit": "µM"}, {"measurement": "Activity", "setting": "HUVEC [4]", "value": "Dose-dependent effect"}, {"measurement": "inhibition", "setting": "Mus musculus", "value": "Active"}, {"measurement": "Activity", "setting": "MCF7 [5]", "value": "Active"}, {"measurement": "Activity", "setting": "Tubulin (Homo sapiens) [6]", "value": 10.1, "unit": "um/min"}, {"measurement": "Activity", "setting": "Tubulin (Homo sapiens) [7]", "value": 29.7, "unit": "%"}, {"measurement": "TIME", "setting": "Tubulin (Homo sapiens) [7]", "value": 0.00517, "unit": "h"}, {"measurement": "Activity", "setting": "[8]", "value": "Non-Toxic"}, {"measurement": "Drug metabolism", "setting": "[9]", "value": "Metabolite_Detected"}, {"measurement": "TIME", "setting": "Tubulin (Homo sapiens) [10]", "value": 0.552, "unit": "h"}, {"measurement": "Activity", "setting": "[11]", "value": "Non-Toxic"}, {"measurement": "Activity", "setting": "[12]", "value": "Non-Toxic"}, {"measurement": "inhibition (INH)", "setting": "[13]", "value": "82.5 - 88%"}, {"measurement": "inhibition", "setting": "[14]", "value": "> 50", "unit": "%"}, {"measurement": "inhibition in vivo at 7.5 mg/kg", "setting": "[15]", "value": "26 to 81", "unit": "%"}, {"measurement": "Activity", "setting": "Rattus norvegicus [16]", "value": "Non-Toxic"}, {"measurement": "EC50", "setting": "[17]", "value": 0.0138, "unit": "µM"}, {"measurement": "Activity", "setting": "Tubulin (Homo sapiens) [18]", "value": 10.6, "unit": "um/min"}, {"measurement": "Activity", "setting": "Tubulin (Homo sapiens) [19]", "value": 10.6, "unit": "um/min"}, {"measurement": "Activity", "setting": "Rattus norvegicus [20]", "value": "Non-Toxic"}, {"measurement": "inhibition", "setting": "[21]", "value": "> 50", "unit": "%"}, {"measurement": "Activity", "setting": "[22]", "value": "Non-Toxic"}, {"measurement": "Activity", "setting": "Rattus norvegicus [23]", "value": "Non-Toxic"}, {"measurement": "Activity", "setting": "Rattus norvegicus [24]", "value": "Toxic"}, {"measurement": "MIC", "setting": "[25]", "value": "> 16", "unit": "mg/L"}, {"measurement": "EC50", "setting": "[26]", "value": 0.0371, "unit": "µM"}, {"measurement": "Activity", "setting": "Tubulin (Homo sapiens) [27]", "value": "Active"}, {"measurement": "Activity", "setting": "Rattus norvegicus [28]", "value": "Non-Toxic"}, {"measurement": "EC50", "setting": "[29]", "value": "> 20", "unit": "µM"}, {"measurement": "MIC", "setting": "[30]", "value": "> 16", "unit": "mg/L"}, {"measurement": "Activity", "setting": "Rattus norvegicus [31]", "value": "Toxic"}, {"measurement": "Activity", "setting": "Tubulin (Homo sapiens) [32]", "value": 20.5, "unit": "%"}, {"measurement": "TIME", "setting": "Tubulin (Homo sapiens) [32]", "value": 0.00333, "unit": "h"}, {"measurement": "inhibition", "setting": "Tubulin (Bos taurus)", "value": "Active"}, {"measurement": "inhibition", "setting": "MCF7 [33]", "value": "Dose-dependent effect"}, {"measurement": "Activity", "setting": "HUVEC [34]", "value": "Active"}, {"measurement": "MIC", "setting": "[35]", "value": "< 0.03", "unit": "mg/L"}, {"measurement": "Activity", "setting": "Tubulin (Homo sapiens) [36]", "value": 11.9, "unit": "um/min"}, {"measurement": "Activity", "setting": "Tubulin (Homo sapiens) [37]", "value": 34.1, "unit": "um/min"}, {"measurement": "Activity", "setting": "MCF7 [38]", "value": "Active"}]}]}
